{"source": "patent US20160193240A1", "about": "“Ulmoside-A: Useful For Prevention Or Cure Of Metabolic Diseases” (COUNCIL OF SCIENTIFIC & INDUSTRIAL RESEARCH, priority 2013, published 2016)", "key": {"C2C12 myotubes": {"tested_on": "C2C12 myotubes", "test": "Fatty acid oxidation (14CO2 release from 14C palmitate) in C2C12 myotubes", "assay_type": "cell-based, mouse", "conditions": "10 nM", "procedure": "B. ULMA enhances fatty acid oxidation in C2C12 myotubes. C2C12 myotubes plated in 12 well plates were treated with vehicle (0.1% vol/vol DMSO) or 10 nM ULMA in DMSO (final concentration of DMSO in all wells 0.1% for 2 h, 24 h or 48 h. Data represent mean±SEM of three independent experiments performed in triplicates. Following treatment, ^14CO2 release from these cells was measured and plotted. *p<0.05, **p<0.01, ***p<0.001 as determined by two tailed unpaired student's t-test.\nD. siAdipoR1 eliminates ULMA induction of fatty acid oxidation. C2C12 myotubes were transfected with nonsilencing siC or siAdipoR1. 72 h after transfection, cells were treated for 24 h with 10 nM ULMA and fatty acid oxidation experiments were performed. Data is mean±SEM of three independent experiments performed in triplicates. **p<0.01 as determined by two tailed unpaired student's t-test.\nAdiponectin is known to enhance glucose uptake and fatty acid oxidation in skeletal muscle and myotubes (T. Kadowaki, T. Yamauchi, N. Kubota, K. Hara, K. Ueki, K. Tobe. J Clin Invest. 116(7): 1784-1792. 2006; T. Yamauchi, J. Kamon, Y. Ito, A. Tsuchida, T. Yokomizok, S. Kita, T. Sugiyama, M. Miyagishi, K. Hara, M. Tsunodaq, K. Murakamiq, T. Ohteki, S. Uchida, S. Takekawa, H. Waki, N. H. Tsuno, Y. Shibata, Y. Terauchi, P. Froguel, K. Tobe, S. Koyasu, K. Taira, T. Kitamura, T. Shimizuk, R. Nagai, T. Kadowaki. Nature. 423(6941):762-769. 2003). […] Subsequently, the cells were lysed in 100 μl 0.5N NaOH and 5 μl lysate was used for protein concentration determination, and rest of the lysate was used to measure cellular radioactivity in a beta-counter (Beckman Coulter). […] Radioactivity that had become adsorbed onto the filter discs was then quantified by liquid scintillation counting in a beta-counter (Beckman Coulter). The cells were lysed with 200 μl 0.5N NaOH and 5 μl of the lysate was used for protein estimation using Bradford assay and the radioactivity was normalized with the protein content."}, "Human SVF": {"tested_on": "Human SVF", "test": "Brown adipose marker protein level in human stromal vascular fractions", "assay_type": "cell-based", "conditions": "differentiated in presence of ULMA, 21 d", "procedure": "C. Cells from identical set of experiments as described in FIGS. 5A and 5B or human SVFs prepared by collagenase digestions were analyzed by western blot analysis for determination of UCP-1, UCP-2 and PGC-1α protein level. Beta-actin was used as a loading control. Data is representative of three independent experiments.\nMouse stromal vascular fractions (SVF) from epididymal fat pad were prepared using standard collagenase digestion method. Human SVF was prepared from human lipoaspirates (subcutaneous) collected from an obese individual undergoing liposuction following approval of Institutional Ethical Committee. To isolate SVFs, epidymal fat pads tissue or lipoaspirates were washed 6× in PBS and then were dispensed in tissue culture flasks. 0.2% sterile collagenase (Sigma) solution containing 1× antibiotic-antimycotic (Invitrogen) was then added to the adipose and the flasks were shaken vigorously for 10 seconds. The flasks were then incubated at 37° C. on a shaker for 2 hours with manual shaking of the flasks for 5-10 seconds every 15 min. After completion of digestion, FBS was added to the final concentration of 10% to the flasks, mixed and the collagenase digested tissue were then dispensed in 50 ml conical tubes and were centrifuged at 400 g for 10 min at room temp. […]"}, "rats": {"tested_on": "rats", "conditions": "cited from earlier work"}}}
{"smiles": "O=C1c2c(cc(O)c([C@@H]3O[C@H](CO)[C@@H](O)[C@H](O)[C@H]3O)c2O)O[C@@H](c2ccc(O)c(O)c2)[C@@H]1O", "note": "[ULMA, (2S,3S)-(+)-3′,4′,5,7-tetrahydroxydihydroflavonol-6-C-β-D-glucopyranoside]", "values": [{"measurement": "time of treatment at which induction of fatty acid oxidation was visible", "setting": "C2C12 myotubes", "result": "≤ 2", "unit": "h"}, {"measurement": "fatty acid oxidation", "setting": "C2C12 myotubes; 2 h, 24 h or 48 h, increased with time", "result": "robustly induced"}, {"measurement": "ULMA-induced fatty acid oxidation with siAdipoR1 (not siC)", "setting": "C2C12 myotubes; 24 h, 72 h after siRNA transfection", "result": "completely eliminated"}, {"measurement": "PGC-1α protein level", "setting": "Human SVF", "result": "elevated"}, {"measurement": "UCPs protein level", "setting": "Human SVF", "result": "elevated"}, {"measurement": "effect on ovariectomy-induced osteoporosis", "setting": "rats", "result": "mitigated ovariectomy-induced osteoporosis"}]}
